Assay results: the supplement of paper PMC10307832

Key:
Test in all cases: relative viability (nuclei count vs DMSO), 5 days (fraction); higher = more cells survive
AZD8055 + Lapatinib = compound: COc1ccc(-c2ccc3c(N4CCOC[C@@H]4C)nc(N4CCOC[C@@H]4C)nc3n2)cc1CO [AZD8055] + CS(=O)(=O)CCNCc1ccc(-c2ccc3ncnc(Nc4ccc(OCc5cccc(F)c5)c(Cl)c4)c3c2)o1 [Lapatinib] (partner 2 µM)
Procedure, shortened: (§1)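 For relative viability, nuclei counts in treated wells were divided by those in vehicle wells. Lung cancer cell lines had been pin-tool dosed in 1536-well plates the day after seeding and cultured for 5 days, then fixed and stained in one step (final 0.05% Triton X-100, 1% formaldehyde, 1 ug/ml Hoechst) and imaged at 4×. Doses were one drug alone or a fixed anchor-drug dose plus five library-drug doses (not always all listed) in √10 steps, and values are duplicate-plate medians.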

AZD8055 + Linsitinib = compound: COc1ccc(-c2ccc3c(N4CCOC[C@@H]4C)nc(N4CCOC[C@@H]4C)nc3n2)cc1CO [AZD8055] + C[C@]1(O)C[C@@H](c2nc(-c3ccc4ccc(-c5ccccc5)nc4c3)c3c(N)nccn32)C1 [Linsitinib] (partner 1 µM)
Procedure, shortened: as §1

AZD8055 + OSI-027 = compound: COc1ccc(-c2ccc3c(N4CCOC[C@@H]4C)nc(N4CCOC[C@@H]4C)nc3n2)cc1CO [AZD8055] + COc1cccc2cc(-c3nc([C@H]4CC[C@H](C(=O)O)CC4)n4ncnc(N)c34)[nH]c12 [OSI-027] (partner 0.5 µM)
Procedure, shortened: as §1

AZD8055 + Luminespib = compound: COc1ccc(-c2ccc3c(N4CCOC[C@@H]4C)nc(N4CCOC[C@@H]4C)nc3n2)cc1CO [AZD8055] + CCNC(=O)c1noc(-c2cc(C(C)C)c(O)cc2O)c1-c1ccc(CN2CCOCC2)cc1 [Luminespib] (partner 0.01 µM)
Procedure, shortened: as §1

Cell Line	relative viability (AZD8055 + Lapatinib; first compound 0.01 µM)	relative viability (AZD8055 + Lapatinib; first compound 0.03162 µM)	relative viability (AZD8055 + Lapatinib; first compound 0.1 µM)	relative viability (AZD8055 + Lapatinib; first compound 0.3162 µM)	relative viability (AZD8055 + Lapatinib; first compound 1 µM)	relative viability (AZD8055 + Linsitinib; first compound 0.01 µM)	relative viability (AZD8055 + Linsitinib; first compound 0.03162 µM)	relative viability (AZD8055 + Linsitinib; first compound 0.1 µM)	relative viability (AZD8055 + Linsitinib; first compound 0.3162 µM)	relative viability (AZD8055 + Linsitinib; first compound 1 µM)	relative viability (AZD8055 + OSI-027; first compound 0.01 µM)	relative viability (AZD8055 + OSI-027; first compound 0.03162 µM)	relative viability (AZD8055 + OSI-027; first compound 0.1 µM)	relative viability (AZD8055 + OSI-027; first compound 0.3162 µM)	relative viability (AZD8055 + OSI-027; first compound 1 µM)	relative viability (AZD8055 + Luminespib; first compound 0.01 µM)	relative viability (AZD8055 + Luminespib; first compound 0.03162 µM)	relative viability (AZD8055 + Luminespib; first compound 0.1 µM)	relative viability (AZD8055 + Luminespib; first compound 0.3162 µM)	relative viability (AZD8055 + Luminespib; first compound 1 µM)
NCI-H838	1.04	0.656	0.352	0.237	0.336	0.664	0.383	0.32	0.208	0.25	0.377	0.404	0.383	0.262	0.31	0.317	0.223	0.234	0.156	0.196
NCI-H1437	1.03	0.76	0.549	0.221	0.183	0.832	0.731	0.425	0.143	0.155	0.973	0.88	0.753	0.354	0.389	1.28	1.26	1.23	0.775	0.365
SK-LU-1	0.866	0.761	0.487	0.376	0.332	0.941	0.798	0.877	0.491	0.321	0.354	0.372	0.337	0.289	0.242	0.205	0.185	0.159	0.145	0.154
BEN	0.607	0.402	0.353	0.317	0.304	0.955	0.574	0.41	0.325	0.279	0.308	0.374	0.322	0.291	0.251	0.242	0.179	0.305	0.216	0.192
LC-2-ad	1.1	0.987	0.924	0.683	0.456	0.852	0.803	0.56	0.414	0.397	0.937	0.864	0.706	0.618	0.523	1.25	0.969	1.03	0.537	0.548
COR-L23	1.36	0.804	0.741	0.33	0.219	0.977	0.578	0.392	0.152	0.14	0.765	0.588	0.526	0.297	0.256	0.773	0.625	0.381	0.118	0.137
RERF-LC-KJ	0.895	0.726	0.637	0.437	0.345	0.86	0.739	0.597	0.44	0.352	0.587	0.671	0.522	0.387	0.362	1.19	1.14	0.853	0.475	0.473
NCI-H1915	1.1	0.876	1.01	0.655	0.522	1.19	0.977	1.08	0.837	0.558	0.664	0.551	0.656	0.547	0.459	0.777	0.727	0.598	0.5	0.322
NCI-H596	1	0.682	0.661	0.535	0.463	0.991	0.792	0.457	0.386	0.395	0.685	0.731	0.582	0.413	0.315	0.961	0.813	0.44	0.343	0.346
NCI-H2009	1.15	0.74	0.919	0.396	0.316	1.17	1.1	0.891	0.692	0.374	0.72	0.562	0.641	0.338	0.292	1.07	1.07	1.16	0.887	0.378
NCI-H2126	0.653	0.679	0.615	0.453	0.425	0.655	0.572	0.504	0.375	0.385	0.762	0.743	0.717	0.528	0.449	0.921	0.884	0.484	0.308	0.312
LXF-289	0.939	0.903	0.846	0.804	0.708	1	0.997	0.812	0.568	0.515	0.891	0.899	0.727	0.693	0.625	0.715	0.599	0.623	0.309	0.32
NCI-H1563	0.881	0.836	0.756	0.644	0.751	0.971	0.802	0.699	0.625	0.743	0.776	0.731	0.681	0.629	0.599	0.594	0.536	0.541	0.496	0.49
